Experiments:
[1] = HbA1c level (efficacy indicator) in type 2 diabetes outpatients on thiazolidinedione therapy; format: in vivo, human; conditions: average by covariate; type 2 diabetes outpatients treated ≧4 months; from most recent medical records
Method: (§1) Outpatients with type 2 diabetes treated between February and June 2007 with rosiglitazone ([…]) or pioglitazone (n=33) for ≧4 months at the Joslin Diabetes Center affiliate of The Hospital of Central Connecticut (THOCC) in New Britain, Conn. were recruited as volunteer subjects. There were no exclusionary criteria. Each subject provided informed written consent as approved by the THOCC Institutional Review Board.
Hemoglobin A1c: HbA1c levels were measured via ion exchange using the HPLC Variant II (BioRad Laboratories, Hercules Calif.).
(§2) Physiogenomic Analysis. Patients treated with rosiglitazone or pioglitazone were recruited from THOCC clinics and provided informed written consent as approved by the THOCC Institutional Review Board. For physiogenomic associations to HbA1c, body mass index and edema, genotype data were obtained on 88 patients, 55 on rosiglitazone and 33 on pioglitazone regimens. A standardized set of phenotypes were collected from the most recent medical records for each patient. Valid genotype data were obtained on the 88 patients. Extensive information on co-medications and disease history were also collected to control for environmental effects.
(§3) HbA1c was selected as an indicator for efficacy, and body mass index and edema as indicators of undesired side effect. […] The phenotypes were analyzed for covariate dependence on age, gender, ethnicity, and treatment.

[2] = suggested by various meta analyses; since disputed; cited from earlier work
[3] = design: species or system human; conditions: in vivo
Excerpt: as §1
Clinical Assessment. Patient characteristics included age, height, weight, body mass index, and the presence/absence of edema as recorded by a physician.
as §2, with “Extensive information on co-medications and disease history were also collected to control for environmental effects.” left out
as §3

BMI [3] | Compound | HbA1c [1] [%] | risk for myocardial infarction (MI) [2]
33.7 | CN(CCOc1ccc(CC2SC(=O)NC2=O)cc1)c1ccccn1 (stereo not drawn) [rosiglitazone] | 7.4 | may increase the risk for myocardial infarction
33.4 | CCc1ccc(CCOc2ccc(CC3SC(=O)NC3=O)cc2)nc1 (stereo not drawn) [pioglitazone] | 7.4 | does not

Reference: patent US8476012B2, “Physiogenomic method for predicting metabolic and cardiovascular side effects of thiazolidinediones” (Genomas, Inc., priority 2008, dated 2013)
